The test addresses VHL (Homo sapiens (Human), UniProt P40337). In words: VHL fluorescence polarization (FP) competition assay. The format is binding.

The values that follow come from patent US10730870B2, “Compounds and methods for the enhanced degradation of targeted proteins” (Arvinas, Inc., priority 2015, dated 2020).

The compound `CC[C@H](C)[C@H](NC(C)c1ccccc1)C(=O)N1C[C@H](O)C[C@H]1C(=O)NCc1ccc(-c2scnc2C)cc1` (stereo partly drawn) [Example 105, (2S,4R)-4-hydroxy-1-((2S,3S)-3-methyl-2-(1-phenylethylamino)pentanoyl)-N-(4-(4-methylthiazol-5-yl)benzyl)pyrrolidine-2-carboxamide] displayed an IC50 (1% in DMSO) of 37.7 µM.

With `CC(C)[C@@H](C(=O)N1C[C@H](O)C[C@H]1C(=O)NCc1ccc(-c2ccccc2)cc1)N1Cc2ccccc2C1=O` [Example 40, (2S,4R)—N-(biphenyl-4-ylmethyl)-4-hydroxy-1-((S)-3-methyl-2-(1-oxoisoindolin-2-yl)butanoyl)pyrrolidine-2-carboxamide], the IC50 is, setting by setting: (0.25% in DMSO) 17.5 µM; (1% in DMSO) 2.36 µM; (10% in DMSO) 3.92 µM.

For the compound `Cc1ncsc1-c1ccc(CNC(=O)[C@@H]2C[C@@H](O)CN2C(=O)[C@H](C(C)C)N2Cc3ccc(C#N)cc3C2=O)cc1` [Example 17, (2S,4R)-1-((S)-2-(6-cyano-1-oxoisoindolin-2-yl)-3-methylbutanoyl)-4-hydroxy-N-(4-(4-methylthiazol-5-yl)benzyl)pyrrolidine-2-carboxamide], the half-inhibitory concentration (IC50) reads like this: (0.25% in DMSO) 2.2 µM; (1% in DMSO) 0.317 µM; (10% in DMSO) 1.07 µM.

For `Cc1ncsc1-c1ccc(CNC(=O)C2(C)C[C@@H](O)CN2C(=O)[C@H](C(C)C)N2Cc3ccccc3C2=O)cc1` (stereo partly drawn) [Example 131], the “VHL FP Assay IC50” value (1% in DMSO) is “Not Active”.

For `CC(=O)O[C@@H](C)C(=O)N1C[C@H](O)C[C@H]1C(=O)NCc1ccc(-c2scnc2C)cc1` [Example 87, (S)-1-((2S,4R)-4-hydroxy-2-(4-(4-methylthiazol-5-yl)benzylcarbamoyl)pyrrolidin-1-yl)-1-oxopropan-2-yl acetate], the concentration for half-maximal inhibition (IC50) is, setting by setting: (1% in DMSO) 384 µM; (10% in DMSO) 263 µM.

For `Cc1ncsc1-c1ccc(CNC(=O)[C@@H]2C[C@@H](O)CN2C(=O)[C@@H](NC(=O)CCC(C)C)C2CCCCC2)cc1` [Example 56, (2S,4R)-1-((S)-2-cyclohexyl-2-(4-methylpentanamido)acetyl)-4-hydroxy-N-(4-(4-methylthiazol-5-yl)benzyl)pyrrolidine-2-carboxamide], the IC50 is, setting by setting: (1% in DMSO) 0.878 µM; (10% in DMSO) 1.48 µM.

On to `CC[C@H](C)[C@@H](C(=O)N1C[C@H](O)C[C@H]1C(=O)NCc1ccc(-c2scnc2C)cc1)N1Cc2ccccc2C1=O` [Example 30, (2S,4R)-4-hydroxy-1-((2S,3S)-3-methyl-2-(1-oxoisoindolin-2-yl)pentanoyl)-N-(4-(4-methylthiazol-5-yl)benzyl)pyrrolidine-2-carboxamide], for which the IC50 runs as follows: (0.25% in DMSO) 2.27 µM; (1% in DMSO) 0.572 µM; (10% in DMSO) 0.859 µM.

As for `Cc1ncsc1-c1ccc(CNC(=O)[C@@H]2C[C@@H](O)CN2C(=O)[C@@H](NC(=O)CC2CCCCC2)C(C)(C)C)cc1` [Example 19, (2S,4R)-1-((S)-2-(2-cyclohexylacetamido)-3,3-dimethylbutanoyl)-4-hydroxy-N-(4-(4-methylthiazol-5-yl)benzyl)pyrrolidine-2-carboxamide], the IC50 runs as follows: (0.25% in DMSO) 3.77 µM; (1% in DMSO) 0.937 µM; (10% in DMSO) 1.65 µM.

Consider `CC(C)[C@@H](C(=O)N1C[C@H](O)C[C@H]1C(=O)NCc1ccc(C2CC2)cc1)N1Cc2ccccc2C1=O` [Example 113, (2S,4R)—N-(4-cyclopropylbenzyl)-4-hydroxy-1-((S)-3-methyl-2-(1-oxoisoindolin-2-yl)butanoyl)pyrrolidine-2-carboxamide], for which the IC50 (1% in DMSO) is above 10 µM.

For the compound `Cc1ncsc1-c1ccc(CNC(=O)[C@@H]2C[C@@H](O)CN2C(=O)[C@@H](N2Cc3ccccc3C2=O)C(C)(C)C)cc1` [Example 65, (2S,4R)-1-((S)-3,3-dimethyl-2-(1-oxoisoindolin-2-yl)butanoyl)-4-hydroxy-N-(4-(4-methylthiazol-5-yl)benzyl)pyrrolidine-2-carboxamide], the IC50 runs as follows: (1% in DMSO) 0.631 µM; (10% in DMSO) 0.578 µM.

As for `Cc1ncsc1-c1ccc(CNC(=O)[C@@H]2C[C@@H](O)CN2C(=O)[C@@H](NC(=O)[C@H](C)NC(=O)OC(C)(C)C)C(C)(C)C)cc1` [Example 122, tert-butyl (S)-1-((S)-1-((2S,4R)-4-hydroxy-2-(4-(4-methylthiazol-5-yl)benzylcarbamoyl)pyrrolidin-1-yl)-3,3-dimethyl-1-oxobutan-2-ylamino)-1-oxopropan-2-ylcarbamate], the IC50 (1% in DMSO) turned out to be 2.18 µM.

With `CC(C)[C@@H](C(=O)N1C[C@H](O)C[C@H]1C(=O)NCc1ccc(C2CCCC2)cc1)N1Cc2ccccc2C1=O` [Example 115, (2S,4R)—N-(4-cyclopentylbenzyl)-4-hydroxy-1-((S)-3-methyl-2-(1-oxoisoindolin-2-yl)butanoyl)pyrrolidine-2-carboxamide], the IC50 (1% in DMSO) was 15.8 µM.

With `Cc1ncsc1-c1ccc(CNC(=O)[C@@H]2C[C@@H](O)CN2c2cccc(Oc3ccccc3)c2)cc1` [Example 109, (2S,4R)-4-hydroxy-N-(4-(4-methylthiazol-5-yl)benzyl)-1-(3-phenoxyphenyl)pyrrolidine-2-carboxamide], the concentration for half-maximal inhibition (IC50) (1% in DMSO) came out at 6.67 µM.

In the case of `Cc1ncsc1-c1ccc(CNC(=O)[C@@H]2C[C@@H](O)CN2C(=O)[C@@H](NC(=O)c2cccc(C#N)c2)C(C)(C)C)cc1` [Example 71, (2S,4R)-1-((S)-2-(3-cyanobenzamido)-3,3-dimethylbutanoyl)-4-hydroxy-N-(4-(4-methylthiazol-5-yl)benzyl)pyrrolidine-2-carboxamide], the 50% inhibitory concentration (IC50) is 1.62 µM (1% in DMSO) and 1.38 µM (10% in DMSO).

For the compound `Cc1ncsc1-c1ccc(CNC(=O)[C@@H]2C[C@@H](O)CN2C(=O)[C@@H](NC(=O)c2cccnc2)C(C)(C)C)cc1` [Example 84, N—((S)-1-((2S,4R)-4-hydroxy-2-(4-(4-methylthiazol-5-yl)benzylcarbamoyl)pyrrolidin-1-yl)-3,3-dimethyl-1-oxobutan-2-yl)nicotinamide], the 50% inhibitory concentration (IC50) reads like this: (1% in DMSO) 1.24 µM; (10% in DMSO) 1.46 µM.

As for `Cc1ncsc1-c1ccc(CNC(=O)[C@@H]2C[C@@H](O)CN2C(=O)[C@@H](C(C)C)N2Cc3ccc(F)cc3C2=O)cc1` [Example 10, (2S,4R)-1-((R)-2-(6-fluoro-1-oxoisoindolin-2-yl)-3-methylbutanoyl)-4-hydroxy-N-(4-(4-methylthiazol-5-yl)benzyl)pyrrolidine-2-carboxamide], the IC50 runs as follows: (1% in DMSO) around 6.73 µM; (10% in DMSO) 295 µM.

Take `Cc1ncsc1-c1ccc(CNC(=O)[C@@H]2C[C@@H](O)CN2C(=O)C2(N3Cc4ccccc4C3=O)CCCC2)cc1` [Example 50, (2S,4R)-4-hydroxy-N-(4-(4-methylthiazol-5-yl)benzyl)-1-(1-(1-oxoisoindolin-2-yl)cyclopentanecarbonyl)pyrrolidine-2-carboxamide]: the IC50 (10% in DMSO) turned out to be 235 µM.

As for `COc1ccc(CNC(=O)[C@@H]2C[C@@H](O)CN2C(=O)[C@H](C(C)C)N2Cc3ccccc3C2=O)cc1` [Example 81, (2S,4R)-4-hydroxy-N-(4-methoxybenzyl)-1-((S)-3-methyl-2-(1-oxoisoindolin-2-yl)butanoyl)pyrrolidine-2-carboxamide], the IC50 is above 49 µM (1% in DMSO) and 371 µM (10% in DMSO).

For `CC(C)[C@@H](C(=O)N1C[C@](C)(O)C[C@H]1C(=O)O)N1Cc2ccccc2C1=O` [Example 79, (2S,4R)-4-hydroxy-4-methyl-1-[(2S)-3-methyl-2-(1-oxo-2,3-dihydro-1H-isoindol-2-yl)butanoyl]pyrrolidine-2-carboxylic acid], the IC50 is above 100 µM (1% in DMSO) and above 100 µM (10% in DMSO).

Regarding `CCCC(=O)N[C@H](C(=O)N1C[C@H](O)C[C@H]1C(=O)NCc1ccc(-c2scnc2C)cc1)C(C)(C)C` [Example 13, (2S,4R)-1-((S)-2-butyramido-3,3-dimethylbutanoyl)-4-hydroxy-N-(4-(4-methylthiazol-5-yl)benzyl)pyrrolidine-2-carboxamide], the IC50 runs as follows: (0.25% in DMSO) 3.37 µM; (1% in DMSO) 1.34 µM; (10% in DMSO) 2.94 µM.

For `Cc1ncsc1-c1ccc(CNC(=O)[C@@H]2C[C@@H](O)CN2C(=O)[C@@H](NC(=O)CCC(C)C)[C@H](C)O)cc1` [Example 51, (2S,4R)-4-hydroxy-1-((2S,3S)-3-hydroxy-2-(4-methylpentanamido)butanoyl)-N-(4-(4-methylthiazol-5-yl)benzyl)pyrrolidine-2-carboxamide], the IC50 stood at 56.6 µM (1% in DMSO) and 1520 µM (10% in DMSO).

As to `Cc1ncsc1-c1ccc(CNC(=O)[C@@H]2C[C@](C)(O)CN2C(=O)[C@H](C(C)C)N2Cc3ccccc3C2=O)cc1` [Example 62, (2S,4S)-4-hydroxy-4-methyl-1-((S)-3-methyl-2-(1-oxoisoindolin-2-yl)butanoyl)-N-(4-(4-methylthiazol-5-yl)benzyl)pyrrolidine-2-carboxamide], the “VHL FP Assay IC50” value was “Not Active” (1% in DMSO) and “Not Active” (10% in DMSO).

With `CC(C)[C@@H](C(=O)N1C[C@H](O)C[C@H]1C(=O)NCc1ccc(-c2ccn[nH]2)cc1)N1Cc2ccccc2C1=O` [Example 41, (2S,4R)—N-(4-(1H-pyrazol-5-yl)benzyl)-4-hydroxy-1-((S)-3-methyl-2-(1-oxoisoindolin-2-yl)butanoyl)pyrrolidine-2-carboxamide], the concentration for half-maximal inhibition (IC50) is 7.28 µM (0.25% in DMSO), 1.19 µM (1% in DMSO) and 3.05 µM (10% in DMSO).

Where the note is “1% in DMSO”, `CC(C)[C@@H](C(=O)N1C[C@H](O)C[C@H]1C(=O)NCc1ccc(-c2cncn2C)cc1)N1Cc2ccccc2C1=O` [Example 96, (2S,4R)-4-hydroxy-N-(4-(1-methyl-1H-imidazol-5-yl)benzyl)-1-((S)-3-methyl-2-(1-oxoisoindolin-2-yl)butanoyl)pyrrolidine-2-carboxamide] showed a half-inhibitory concentration (IC50) of 35.4 µM.

In the case of `Cc1ncsc1-c1ccc(CNC(=N)[C@@H]2C[C@@H](O)CN2C(=O)[C@H](C(C)C)N2Cc3ccccc3C2=O)cc1` [Example 126, (2S,4R)-4-hydroxy-1-((S)-3-methyl-2-(1-oxoisoindolin-2-yl)butanoyl)-N-(4-(4-methylthiazol-5-yl)benzyl)pyrrolidine-2-carboximidamide], the 50% inhibitory concentration (IC50) runs as follows: (1% in DMSO) 79.5 µM; (10% in DMSO) 112 µM.

As usually defined, the IC50 is the concentration at which inhibition is half-maximal. Low values mean inhibition by little substance, high ones a need for much substance.
